In patent US12157741B2, “Macrocyclic inhibitors of DYRK1A” (DANA-FARBER CANCER INSTITUTE, INC., priority 2018, dated 2024):

Columns and labels:
various enzymes [1] = target: various enzymes (Homo sapiens, UniProt P00533, DEL747-749/A750P); settings: EGFR(L747-E749del, A750P); 1 uM
Method: (§2) Ambit profiling from Eurofins (formerly Discoverx) was conducted in accordance with the manufacturer's instructions.

various enzymes [2] = target: various enzymes (Homo sapiens, UniProt P30530); format: binding; settings: compound 1 uM
Method: (§1) Ambit profiling was conducted in accordance with the manufacturer's instructions.

various enzymes [3] = target: various enzymes (Homo sapiens, UniProt Q13627); format: binding; settings: compound 1 uM
Method: as §1

various enzymes [4] = target: various enzymes (Homo sapiens, UniProt Q9NQU5); format: binding; settings: compound 1 uM
Method: as §1

LRRK2 (G2019S) = target: T1, LRRK2 (G2019S) (Homo sapiens, UniProt Q5S007, G2019S); assay: LRRK2(G2019S) enzyme assay (Promega ADP-Glo Kinase assay); format: biochemical; settings: 25 μM ATP, read-out: Enzyme activity against LRRK2 (G2019S)
T1 construct: purchased SignalChem L10-12GG
Method: All LRRK2 kinase inhibition assays were conducted by using Promega™ ADP-Glo™ Kinase assay systems (Cat No. V4475).
For LRRK G2019S, each compound mixed with 0.2 μg/μL of substrate, 25 μM ATP, 16 ng of LRRK2 G2019S enzyme (SignalChem, L10-12GG). All samples were diluted with kinase reaction buffer (40 mmol/L TrisHCl, 10 mmol/L MgCl2, and 0.1 μg/μL BSA, 0.05 mM DTT). After a 2 h reaction at 25° C., ADP-Glo™ (Promega™, V9102) reagent was added and incubated at rt for 40 min. Finally, kinase detection reagent (Promega™, Cat No. V6930) was added and reacted at 25° C. for 10 min. The luminescence signals were detected by using Synergy™ Neo2 microplate reader (BioTek®). Compound inhibition curve was fitted using GraphPad Prism 8.0 software.

various enzymes [5] = target: various enzymes (Homo sapiens, UniProt O00141); assay: Enzyme IC50 of compound 48 (Table 3); format: biochemical; settings: SGK
various enzymes [6] = target: T2, various enzymes (Homo sapiens, UniProt P36888, D835V, form not given); assay: Enzyme IC50 of compound 48 (Table 3); format: biochemical; settings: read-out: Enzyme IC50; FLT3(ITD, D835V)
T2 construct: Enzyme IC50; other: FLT3(ITD, D835V)

various enzymes [7] = target: various enzymes (Homo sapiens, UniProt P36888, D835V, form not given)
various enzymes [8] = target: various enzymes (Homo sapiens, UniProt P36888, F691L, form not given)
various enzymes [9] = target: T3, various enzymes (Homo sapiens, UniProt Q6P2M8); settings: CAMK1B; 1 uM
Method: as §2

various enzymes [10] = target: various enzymes (Homo sapiens, UniProt Q9Y2I7); settings: PIKFYVE; 1 uM
Method: as §2

various enzymes [11] = target: T4, various enzymes (Homo sapiens, UniProt P45985); assay: Enzyme IC50 of compound 48 (Table 3); format: biochemical; set-up: Enzyme IC50; other: MEK4; settings: MEK4
T4 sequence (P45985 1-399): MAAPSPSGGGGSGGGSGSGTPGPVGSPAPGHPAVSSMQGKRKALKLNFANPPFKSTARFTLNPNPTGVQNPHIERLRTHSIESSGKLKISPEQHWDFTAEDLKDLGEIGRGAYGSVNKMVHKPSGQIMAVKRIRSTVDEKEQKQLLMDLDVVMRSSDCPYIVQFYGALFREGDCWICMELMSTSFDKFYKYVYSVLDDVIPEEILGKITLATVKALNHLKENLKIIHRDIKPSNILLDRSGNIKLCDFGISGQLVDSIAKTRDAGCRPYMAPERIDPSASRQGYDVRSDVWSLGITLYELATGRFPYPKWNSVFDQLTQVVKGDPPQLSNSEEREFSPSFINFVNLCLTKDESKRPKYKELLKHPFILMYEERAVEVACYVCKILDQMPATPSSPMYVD

various enzymes [12] = target: various enzymes (Homo sapiens, UniProt Q9UKE5); assay: Enzyme IC50 of compound 48 (Table 3); format: biochemical; set-up: Enzyme IC50; other: TNIK; settings: TNIK
various enzymes [13] = target: T3, various enzymes; assay: Enzyme IC50 of compound 48 (Table 3); format: biochemical; set-up: Enzyme IC50; other: CAMK1B; settings: CAMK1B
[14] = system: various enzymes (Homo sapiens); format: binding; settings: compound 1 uM
Method: as §1

T3 sequence (Q6P2M8 whole entry): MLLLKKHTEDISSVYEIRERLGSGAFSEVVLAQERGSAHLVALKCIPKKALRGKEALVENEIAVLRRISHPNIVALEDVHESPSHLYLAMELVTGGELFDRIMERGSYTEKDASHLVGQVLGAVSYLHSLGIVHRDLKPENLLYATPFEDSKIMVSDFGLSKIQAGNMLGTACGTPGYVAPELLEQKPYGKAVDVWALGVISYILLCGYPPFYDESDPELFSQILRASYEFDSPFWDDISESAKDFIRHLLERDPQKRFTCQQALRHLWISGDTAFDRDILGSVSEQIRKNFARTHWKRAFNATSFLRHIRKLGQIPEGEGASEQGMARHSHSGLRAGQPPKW
various enzymes (Homo sapiens, UniProt P30530), sequence (P30530 26-894): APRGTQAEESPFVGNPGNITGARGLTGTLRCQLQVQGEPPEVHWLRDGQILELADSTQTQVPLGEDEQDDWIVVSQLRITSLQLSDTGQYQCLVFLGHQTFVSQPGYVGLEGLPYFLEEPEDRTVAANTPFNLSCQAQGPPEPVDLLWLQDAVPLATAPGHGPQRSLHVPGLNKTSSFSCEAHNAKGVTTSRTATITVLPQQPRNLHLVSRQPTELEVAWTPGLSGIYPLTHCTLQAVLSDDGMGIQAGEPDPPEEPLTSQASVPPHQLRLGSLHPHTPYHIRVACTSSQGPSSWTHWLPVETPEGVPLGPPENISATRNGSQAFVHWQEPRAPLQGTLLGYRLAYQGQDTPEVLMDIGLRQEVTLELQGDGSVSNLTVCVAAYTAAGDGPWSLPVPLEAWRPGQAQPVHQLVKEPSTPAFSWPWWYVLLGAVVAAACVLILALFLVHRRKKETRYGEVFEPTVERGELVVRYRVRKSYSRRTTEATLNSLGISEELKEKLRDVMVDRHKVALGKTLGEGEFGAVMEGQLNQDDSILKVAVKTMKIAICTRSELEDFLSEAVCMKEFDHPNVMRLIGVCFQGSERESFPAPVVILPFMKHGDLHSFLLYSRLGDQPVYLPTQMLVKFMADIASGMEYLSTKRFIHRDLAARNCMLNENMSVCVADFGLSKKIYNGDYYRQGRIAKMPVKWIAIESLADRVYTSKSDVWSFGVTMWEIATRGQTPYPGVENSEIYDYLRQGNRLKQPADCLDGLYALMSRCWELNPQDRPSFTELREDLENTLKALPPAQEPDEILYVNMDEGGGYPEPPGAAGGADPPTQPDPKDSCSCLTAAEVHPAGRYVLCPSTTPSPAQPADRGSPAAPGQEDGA
various enzymes (Homo sapiens, UniProt O00141), sequence (O00141 whole entry): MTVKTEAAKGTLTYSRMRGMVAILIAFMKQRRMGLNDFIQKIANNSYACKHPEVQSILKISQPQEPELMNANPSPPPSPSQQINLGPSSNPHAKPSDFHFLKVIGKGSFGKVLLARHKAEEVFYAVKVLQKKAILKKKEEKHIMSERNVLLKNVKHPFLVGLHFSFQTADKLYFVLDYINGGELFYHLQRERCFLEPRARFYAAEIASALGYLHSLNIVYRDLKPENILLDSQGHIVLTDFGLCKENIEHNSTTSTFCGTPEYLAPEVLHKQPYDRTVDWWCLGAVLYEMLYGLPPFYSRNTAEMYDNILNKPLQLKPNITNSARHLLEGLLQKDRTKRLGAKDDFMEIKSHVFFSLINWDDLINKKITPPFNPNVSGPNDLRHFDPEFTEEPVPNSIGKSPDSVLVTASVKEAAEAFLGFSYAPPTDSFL
T1 sequence (Q5S007 whole entry G2019S): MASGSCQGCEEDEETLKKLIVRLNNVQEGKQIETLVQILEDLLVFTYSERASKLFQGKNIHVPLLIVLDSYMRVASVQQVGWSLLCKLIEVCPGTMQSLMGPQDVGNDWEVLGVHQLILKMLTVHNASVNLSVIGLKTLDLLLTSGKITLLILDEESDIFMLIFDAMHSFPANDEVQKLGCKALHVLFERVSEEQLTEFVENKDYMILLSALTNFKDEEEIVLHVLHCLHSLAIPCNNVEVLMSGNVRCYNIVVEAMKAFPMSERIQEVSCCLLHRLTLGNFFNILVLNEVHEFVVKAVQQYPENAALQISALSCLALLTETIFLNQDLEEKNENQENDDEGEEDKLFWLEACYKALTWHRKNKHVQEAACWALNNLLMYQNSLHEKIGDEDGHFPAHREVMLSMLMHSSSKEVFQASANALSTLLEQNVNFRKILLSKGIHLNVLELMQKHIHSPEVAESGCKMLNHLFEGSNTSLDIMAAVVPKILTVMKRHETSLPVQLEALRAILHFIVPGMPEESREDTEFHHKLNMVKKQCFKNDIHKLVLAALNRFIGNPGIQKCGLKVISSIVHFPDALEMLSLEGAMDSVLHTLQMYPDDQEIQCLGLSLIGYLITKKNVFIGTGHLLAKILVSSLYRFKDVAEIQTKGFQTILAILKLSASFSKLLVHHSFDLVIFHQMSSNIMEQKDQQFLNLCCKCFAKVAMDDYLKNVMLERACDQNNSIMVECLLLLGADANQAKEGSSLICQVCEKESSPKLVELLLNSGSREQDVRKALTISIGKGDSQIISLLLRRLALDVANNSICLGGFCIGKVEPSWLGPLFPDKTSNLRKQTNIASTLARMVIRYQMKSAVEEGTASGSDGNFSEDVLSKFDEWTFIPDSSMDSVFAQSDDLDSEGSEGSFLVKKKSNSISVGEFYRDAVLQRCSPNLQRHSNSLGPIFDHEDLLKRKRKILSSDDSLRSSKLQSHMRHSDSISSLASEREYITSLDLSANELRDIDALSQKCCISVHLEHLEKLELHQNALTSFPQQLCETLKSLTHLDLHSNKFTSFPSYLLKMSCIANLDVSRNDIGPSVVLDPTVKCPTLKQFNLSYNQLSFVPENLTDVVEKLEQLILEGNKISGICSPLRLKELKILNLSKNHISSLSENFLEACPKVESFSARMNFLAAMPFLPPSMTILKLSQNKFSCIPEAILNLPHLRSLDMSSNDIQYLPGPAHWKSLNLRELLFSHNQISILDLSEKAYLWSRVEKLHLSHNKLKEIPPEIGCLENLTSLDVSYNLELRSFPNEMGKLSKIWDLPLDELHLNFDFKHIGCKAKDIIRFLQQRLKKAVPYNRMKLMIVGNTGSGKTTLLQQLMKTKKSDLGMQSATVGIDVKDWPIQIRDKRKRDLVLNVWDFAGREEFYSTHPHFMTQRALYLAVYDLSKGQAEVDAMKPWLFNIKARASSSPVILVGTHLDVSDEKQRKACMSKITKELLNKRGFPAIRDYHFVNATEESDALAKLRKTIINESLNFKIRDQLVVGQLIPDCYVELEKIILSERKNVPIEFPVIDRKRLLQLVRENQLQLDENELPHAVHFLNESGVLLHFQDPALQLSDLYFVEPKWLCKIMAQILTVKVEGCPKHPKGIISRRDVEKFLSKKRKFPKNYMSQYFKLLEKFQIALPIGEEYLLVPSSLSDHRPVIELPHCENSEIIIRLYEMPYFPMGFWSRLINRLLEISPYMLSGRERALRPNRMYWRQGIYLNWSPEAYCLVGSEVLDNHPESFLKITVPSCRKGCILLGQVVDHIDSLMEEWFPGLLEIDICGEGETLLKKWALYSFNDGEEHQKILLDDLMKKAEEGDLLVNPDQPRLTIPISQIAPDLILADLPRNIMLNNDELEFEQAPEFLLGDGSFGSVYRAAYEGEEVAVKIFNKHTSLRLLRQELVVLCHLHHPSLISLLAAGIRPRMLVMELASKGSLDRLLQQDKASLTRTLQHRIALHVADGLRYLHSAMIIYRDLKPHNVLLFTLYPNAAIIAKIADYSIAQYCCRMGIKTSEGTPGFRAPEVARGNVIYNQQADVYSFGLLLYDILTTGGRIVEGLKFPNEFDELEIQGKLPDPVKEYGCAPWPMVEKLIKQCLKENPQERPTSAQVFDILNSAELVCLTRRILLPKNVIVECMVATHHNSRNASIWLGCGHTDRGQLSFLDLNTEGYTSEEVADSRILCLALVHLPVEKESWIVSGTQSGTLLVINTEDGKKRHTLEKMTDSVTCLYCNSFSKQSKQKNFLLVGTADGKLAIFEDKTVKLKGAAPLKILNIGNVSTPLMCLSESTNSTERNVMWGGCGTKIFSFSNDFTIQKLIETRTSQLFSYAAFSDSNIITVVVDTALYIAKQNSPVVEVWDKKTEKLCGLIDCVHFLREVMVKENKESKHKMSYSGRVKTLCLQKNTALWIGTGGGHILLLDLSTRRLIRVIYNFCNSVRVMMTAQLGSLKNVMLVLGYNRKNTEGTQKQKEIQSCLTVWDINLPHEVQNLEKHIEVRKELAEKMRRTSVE
various enzymes (Homo sapiens, UniProt Q9NQU5), sequence (Q9NQU5 whole entry): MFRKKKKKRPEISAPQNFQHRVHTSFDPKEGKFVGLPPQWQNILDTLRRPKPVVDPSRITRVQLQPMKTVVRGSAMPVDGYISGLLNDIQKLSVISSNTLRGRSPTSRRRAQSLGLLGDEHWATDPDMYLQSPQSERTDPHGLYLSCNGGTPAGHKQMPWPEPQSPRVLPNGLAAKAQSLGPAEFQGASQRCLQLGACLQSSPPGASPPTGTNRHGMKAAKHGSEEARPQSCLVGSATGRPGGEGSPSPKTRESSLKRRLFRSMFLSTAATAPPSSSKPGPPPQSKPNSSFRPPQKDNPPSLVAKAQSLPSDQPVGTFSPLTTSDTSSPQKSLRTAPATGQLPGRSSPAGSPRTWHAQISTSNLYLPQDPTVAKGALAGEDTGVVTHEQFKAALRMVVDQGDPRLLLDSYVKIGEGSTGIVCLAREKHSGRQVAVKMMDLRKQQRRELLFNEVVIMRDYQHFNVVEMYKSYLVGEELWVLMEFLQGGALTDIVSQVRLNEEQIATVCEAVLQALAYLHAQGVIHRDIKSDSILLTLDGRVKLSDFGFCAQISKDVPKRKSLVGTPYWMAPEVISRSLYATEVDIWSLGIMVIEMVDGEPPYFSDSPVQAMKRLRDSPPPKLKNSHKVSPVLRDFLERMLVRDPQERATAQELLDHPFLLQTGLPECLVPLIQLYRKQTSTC
various enzymes (Homo sapiens), sequence (Q9NQU5 whole entry): as above

CN1Cc2nn(C)cc2-c2cnc3[nH]cc(c3c2)-c2cnn(c2)CCCC1=O [Compound 41, (Z)-31,5-dimethyl-11H,21H,31H-5-aza-2(3,5)-pyrrolo[2,3-b]pyridina-1(4,1),3(4,3)-dipyrazolacyclononaphan-6-one]
Ambit profiling (various enzymes [1]): 79

CC(C)N1Cc2nn(C)cc2-c2cnc3[nH]cc(c3c2)-c2cn(nc2C(F)(F)F)CCCC1=O [Compound 45, (Z)-5-isopropyl-31-methyl-13-(trifluoromethyl)-11H,21H,31H-5-aza-2(3,5)-pyrrolo[2,3-b]pyridina-1(4,1),3(4,3)-dipyrazolacyclononaphan-6-one]
Ambit profiling: AXL (various enzymes [2]): 0 | Ambit profiling: DYRK1A (various enzymes [3]): 0.3 | Ambit profiling: PAK6 (various enzymes [4]): 70

CN1Cc2nn(C)c(C#N)c2-c2cnc3[nH]cc(c3c2)-c2cn(nc2C(F)(F)F)CCCC1=O [Compound 48, (Z)-31,5-dimethyl-6-oxo-13-(trifluoromethyl)-11H,21H,31H-5-aza-2(3,5)-pyrrolo[2,3-b]pyridina-1(4,1),3(4,3)-dipyrazolacyclononaphane-35-carbonitrile]
IC50 (LRRK2 (G2019S)): > 100 nM | IC50 (various enzymes [5]): 212 nM | IC50 (various enzymes [6]): 354 nM | Ambit profiling (various enzymes [7]): 2.2 | Ambit profiling (various enzymes [8]): 46 | Ambit profiling (various enzymes [9]): 2.9 | Ambit profiling (various enzymes [10]): 94 | IC50 (various enzymes [11]): 173 nM | IC50 (various enzymes [12]): 87 nM | IC50 (various enzymes [13]): 830 nM

COc1c2c(nn1C)CN(C(C)C)C(=O)CCCn1cc(c(C(F)(F)F)n1)-c1c[nH]c3ncc-2cc13 [Compound 50, (Z)-5-isopropyl-35-methoxy-31-methyl-13-(trifluoromethyl)-11H,21H,31H-5-aza-2(3,5)-pyrrolo[2,3-b]pyridina-1(4,1),3(4,3)-dipyrazolacyclononaphan-6-one]
Ambit profiling: PAK8 [14]: 86
